Peptide text beside a SMILES is read from it.
Columns and labels:
[1] = molecular target: HLA-C0702 (Homo sapiens, UniProt P10321); assay: Competitive peptide binding assay, CIR-C0702
[2] = molecular target: HLA-C0801 (Homo sapiens, UniProt P10321, A176T/A330V/A97T/C350S/D114A/D138N/D33Y/E201K/E299G/L171W/L218V/M285V/M309V/M331V/P208H/Q277E/Q291P/R59Q/S123Y/S140F/S297R/S48A/T329A/T363A/V319A/V328M); assay: Competitive peptide binding assay, CIR-C0801; details: HMy2.CIR-C0801 cells, reference Cy5-[…], class from inhibition at 5 and 15 μM, flow cytometry MFI; read-out: Binding affinity with HLA-C0801
Procedure: (§1) Then, competitive peptide binding assays were performed.

[3] = molecular target: HLA-C1502 (Homo sapiens, UniProt P10321, A176E/A330V/A97T/C350S/D114A/D33Y/K90N/L119I/L171W/L218V/M285V/M309V/M331V/N104K/P208H/Q277E/Q291P/R45H/S101N/S123Y/S140L/S297R/S48A/T118I/T329A/T363A/V319A/V328M/Y137H); assay: Competitive peptide binding assay, CIR-C1502; details: HMy2.CIR-C1502 cells, reference Cy5-[…], class from inhibition at 5 and 15 μM, flow cytometry MFI; read-out: Binding affinity with HLA-C1502
Procedure: as §1

[4] = molecular target: HLA-C0302 (Homo sapiens, UniProt P10321, A176E/A330V/A97T/C25G/C350S/D114A/D33Y/E197K/L127V/L171W/L218V/M285V/M309V/M331V/P208H/Q277E/Q291P/R243W/R45H/S123Y/S297R/S48A/T118I/T187L/T329A/T363A/V319A); assay: Competitive peptide binding assay, CIR-C0302; details: HMy2.CIR-C0302 cells, reference Cy5-[…], class from inhibition at 5 and 15 μM, flow cytometry MFI; read-out: Binding affinity with HLA-C0302
Procedure: as §1

[5] = molecular target: HLA-C0303 (Homo sapiens, UniProt P10321, A176E/A330V/A97T/C25G/C350S/D114A/D33Y/E197K/G115R/L119I/L127V/L171W/L218V/M285V/M309V/M331V/P208H/Q277E/Q291P/R243W/R45H/S123Y/S140Y/S297R/S48A/T118I/T187L/T329A/T363A/V319A); assay: Competitive peptide binding assay, CIR-C0303; details: HMy2.CIR-C0303 cells, reference Cy5-[…], class from inhibition at 5 and 15 μM, flow cytometry MFI; read-out: Binding affinity with HLA-C0303
Procedure: as §1

[6] = molecular target: HLA-C0102 (Homo sapiens, UniProt P10321, A176E/A330V/A35S/A97T/C350S/D114A/D33F/L171W/L180R/L218V/M285V/M309V/M331V/P208H/Q277E/Q291P/R121W/R243W/R30K/S123C/S140Y/S297R/T329A/T363A/V272M/V319A); assay: Competitive peptide binding assay, CIR-C0102; details: HMy2.CIR-C0102 cells, reference Cy5-[…], class from inhibition at 5 and 15 μM, flow cytometry MFI; read-out: Binding affinity with HLA-C0102
Procedure: as §1

[7] = molecular target: HLA-C0701 (Homo sapiens, UniProt P10321, K90N/S123Y); assay: Competitive peptide binding assay, CIR-C0701; details: HMy2.CIR-C0701 cells, reference Cy5-[…], class from inhibition at 5 and 15 μM, flow cytometry MFI; read-out: Binding affinity with HLA-C 0701
Procedure: as §1

[8] = molecular target: HLA-C0602 (Homo sapiens, UniProt P10321, A176E/A330V/C350S/L171W/L180W/L218V/M285V/M309V/M331V/N104K/P208H/Q277E/Q291P/R121W/S101N/S123Y/S297R/T329A/T363A/V319A/V328M); assay: Competitive peptide binding assay, CIR-C0602
[9] = molecular target: HLA-C0304 (Homo sapiens, UniProt P10321, A176E/A330V/A97T/C25G/C350S/D114A/D33Y/E197K/L119I/L127V/L171W/L218V/M285V/M309V/M331V/P208H/Q277E/Q291P/R243W/R45H/S123Y/S140Y/S297R/S48A/T118I/T187L/T329A/T363A/V319A); assay: Competitive peptide binding assay, CIR-C0304; details: HMy2.CIR-C0304 cells, reference Cy5-[…], class from inhibition at 5 and 15 μM, flow cytometry MFI; read-out: Binding affinity with HLA-C0304
Procedure: as §1

[10] = molecular target: HLA-C1402 (Homo sapiens, UniProt P10321, A176E/A330V/A35S/A97T/C350S/D114A/D33S/L171W/L180R/L218V/M285V/M309V/M331V/P208H/Q277E/Q291P/R121W/R243W/S123F/S297R/S48A/T329A/T363A/V319A); assay: Competitive peptide binding assay, CIR-C1402; details: HMy2.CIR-C1402 cells, reference Cy5-[…], class from inhibition at 5 and 15 μM, flow cytometry MFI; read-out: Binding affinity with HLA-C1402
Procedure: as §1

[11] = molecular target: HLA-C1202 (Homo sapiens, UniProt P10321, A176E/A330V/C350S/D114A/D33Y/L171W/L180W/L218V/M285V/M309V/M331V/P208H/Q277E/Q291P/S123Y/S297R/S48A/T329A/T363A/V319A/V328M); assay: Competitive peptide binding assay, CIR-C1202; details: HMy2.CIR-C1202 cells, reference Cy5-[…], class from inhibition at 5 and 15 μM, flow cytometry MFI; read-out: Binding affinity with HLA-C1202
Procedure: as §1

[12] = molecular target: HLA-B5101 (Homo sapiens, UniProt P01889, A329T/A93T/A95T/C349S/D138N/D201E/D98Y/E187L/E204Q/E69T/G107R/I218V/K202T/L105A/L119W/N104I/Q94N/R106L/R155S/R180L/S101N/S121T/S35A/S48A/V306I/V36M/Y195H/Y91F); assay: Competitive peptide binding assay, CIR-B5101; details: HMy2.CIR-B5101 cells, reference Cy5-[…], class from inhibition at 5 and 15 μM, flow cytometry MFI; read-out: Binding affinity with HLA-B5101
Procedure: as §1

[13] = molecular target: HLA-B4601 (Homo sapiens, UniProt P01889, A329T/A93R/C349S/D201E/E100V/E187L/E204Q/E69M/E70A/I90K/K202T/N87E/R155S/R180W/S121R/S35A/S48A/V306I/V36M/Y140S); assay: Competitive peptide binding assay, CIR-B4601; details: HMy2.CIR-B4601 cells, reference Cy5-[…], class from inhibition at 5 and 15 μM, flow cytometry MFI; read-out: Binding affinity with HLA-B4601
Procedure: as §1

[14] = molecular target: HLA-B5201 (Homo sapiens, UniProt P01889, A329T/A93T/A95T/C349S/D138N/D201E/D98Y/E187L/E204Q/E69T/G107R/I218V/K202T/L105A/L119W/N104I/N87E/Q94N/R106L/R155S/R180L/S101N/S121T/S35A/S48A/V306I/V36M/Y195H/Y91S); assay: Competitive peptide binding assay, CIR-B5201; details: HMy2.CIR-B5201 cells, reference Cy5-[…], class from inhibition at 5 and 15 μM, flow cytometry MFI; read-out: Binding affinity with HLA-B5201
Procedure: as §1

[15] = molecular target: T1, HLA-B0702 (Homo sapiens, UniProt P01889); assay: Competitive peptide binding assay, CIR-B0702; details: HMy2.CIR-B0702 cells, reference Cy5-[…], class from inhibition at 5 and 15 μM, flow cytometry MFI
T1 construct: expressed in transfected cells; host or cells: HMy2.CIR
Procedure: as §1

[16] = molecular target: HLA-B4801 (Homo sapiens, UniProt P01889, A269T/A93T/A95T/D138N/D98Y/E176V/N87E/Q94N/R180L/T167S/W171L/Y91S); assay: Competitive peptide binding assay, CIR-B4801; details: HMy2.CIR-B4801 cells, reference Cy5-[…], class from inhibition at 5 and 15 μM, flow cytometry MFI; read-out: Binding affinity with HLA-B4801
Procedure: as §1

[17] = molecular target: HLA-B1302 (Homo sapiens, UniProt P01889, A65T/A93T/A95T/D138N/D201E/D98Y/E176V/E204Q/E69M/E70A/G107R/K202T/L105A/L119W/N104T/N87E/Q94N/R106L/R155S/R169L/R180L/S101N/S121T/S35A/S48T/V127L/V36M/Y140L/Y91S); assay: Competitive peptide binding assay, CIR-B1302; details: HMy2.CIR-B1302 cells, reference Cy5-MMWYWGPSL, class from inhibition at 5 and 15 μM, flow cytometry MFI; read-out: Binding affinity with HLA-B1302
Procedure: as §1

[18] = molecular target: HLA-B5801 (Homo sapiens, UniProt P01889, A329T/C349S/D201E/D98Y/E176V/E187L/E204Q/E69T/G107R/I218V/I90N/K202T/L105A/L119I/N104I/N87E/Q89R/Q94S/R106L/R155S/R180L/R86G/S101N/S121R/S35A/S48A/T118I/V127L/V306I/V36M/Y140S/Y91M); assay: Competitive peptide binding assay, CIR-B5801; details: HMy2.CIR-B5801 cells, reference Cy5-[…], class from inhibition at 5 and 15 μM, flow cytometry MFI; read-out: Binding affinity with HLA-B5801
Procedure: as §1

[19] = molecular target: HLA-B1501 (Homo sapiens, UniProt P01889, A329T/A93T/A95T/C349S/D201E/D98Y/E187L/E204Q/E69M/E70A/K202T/N87E/Q94N/R155S/R180W/S121R/S35A/S48A/V306I/V36M/Y140S/Y91S); assay: Competitive peptide binding assay, CIR-B1501; details: HMy2.CIR-B1501 cells, reference Cy5-[…], class from inhibition at 5 and 15 μM, flow cytometry MFI; read-out: Binding affinity with HLA-B1501
Procedure: as §1

[20] = molecular target: HLA-B1502 (Homo sapiens, UniProt P01889, A329T/A93T/A95T/C349S/D201E/D98Y/E187L/E204Q/E69M/E70A/H137Y/K202T/L119I/Q94N/R155S/R180L/S121R/S35A/S48A/T118I/V306I/V36M/Y140S/Y91S); assay: Competitive peptide binding assay, CIR-B1502; details: HMy2.CIR-B1502 cells, reference Cy5-[…], class from inhibition at 5 and 15 μM, flow cytometry MFI; read-out: Binding affinity with HLA-B1502
Procedure: as §1

SMILES	IC50 [1]	IC50 [2]	IC50 [3]	IC50 [5]	IC50 [6]	IC50 [12]	IC50 [14]	other results
C[C@H](NC(=O)[C@H](CO)NC(=O)[C@H](CO)NC(=O)[C@@H](N)Cc1ccc(O)cc1)C(=O)N[C@@H](CC(N)=O)C(=O)N[C@@H](CC(N)=O)C(=O)N[C@@H](CS)C(=O)N[C@H](C(=O)N[C@@H](Cc1ccccc1)C(=O)O)[C@@H](C)O [Epitope M64] (H-YSSANNCTF-OH; N-terminus and C-terminus assumed)	> 15 µM	> 15 µM	< 5 µM	> 15 µM	> 15 µM	–	–	IC50 [4]: 5 to 15 µM
CC(C)[C@H](NC(=O)[C@@H](N)Cc1ccccc1)C(=O)N[C@@H](CO)C(=O)N[C@@H](CC(N)=O)C(=O)NCC(=O)N[C@H](C(=O)N[C@@H](Cc1c[nH]cn1)C(=O)N[C@@H](Cc1c[nH]c2ccccc12)C(=O)N[C@@H](Cc1ccccc1)C(=O)O)[C@@H](C)O [Epitope M68] (H-FVSNGTHWF-OH; N-terminus and C-terminus assumed)	> 15 µM	> 15 µM	5 to 15 µM	–	–	–	–	IC50 [7]: > 15 µM; IC50 [8]: > 15 µM
CC(C)C[C@H](NC(=O)[C@H](CCC(=O)O)NC(=O)[C@H](Cc1ccccc1)NC(=O)[C@H](CO)NC(=O)[C@H](CC(C)C)NC(=O)[C@@H](NC(=O)[C@@H](NC(=O)[C@@H](NC(=O)[C@H](CCCNC(=N)N)NC(=O)[C@@H](N)Cc1ccc(O)cc1)C(C)C)C(C)C)C(C)C)C(=O)O [Epitope M156] (H-YRVVVLSFEL-OH; N-terminus and C-terminus assumed)	–	–	–	> 15 µM	5 to 15 µM	–	–	IC50 [9]: > 15 µM; IC50 [10]: > 15 µM; IC50 [11]: > 15 µM
CC[C@H](C)[C@H](NC(=O)CNC(=O)[C@H](CC(=O)O)NC(=O)[C@H](CCCCN)NC(=O)[C@H](CC(N)=O)NC(=O)[C@H](C)NC(=O)CN)C(=O)N[C@H](C(=O)N[C@@H](Cc1c[nH]c2ccccc12)C(=O)O)[C@@H](C)CC [Epitope Y301] (H-GANKDGIIW-OH; N-terminus and C-terminus assumed)	–	–	–	–	–	> 15 µM	> 15 µM	IC50 [13]: 5 to 15 µM; IC50 [15]: 5 to 15 µM; IC50 [16]: > 15 µM; IC50 [17]: > 15 µM; IC50 [18]: < 5 µM; IC50 [19]: > 15 µM; IC50 [20]: > 15 µM
CC(C)C[C@H](NC(=O)[C@H](CCC(N)=O)NC(=O)[C@H](CC(=O)O)NC(=O)[C@H](C)NC(=O)[C@@H](N)Cc1c[nH]cn1)C(=O)N[C@H](C(=O)N1CCC[C@H]1C(=O)N[C@H](C(=O)N[C@@H](Cc1c[nH]c2ccccc12)C(=O)O)[C@@H](C)O)[C@@H](C)O [Epitope Y313] (H-HADQLTPTW-OH; N-terminus and C-terminus assumed)	–	–	–	–	–	> 15 µM	5 to 15 µM	–
